Assay: xn = mol fraction of the nth substance listed
Settings: 100 kPa

CO + CC[n+]1ccn(C)c1.N#C[S-]
x2 = 0
Settings | viscosity [mPa·s]
293.15 K | 0.59
303.15 K | 0.51
308.15 K | 0.48
313.15 K | 0.45
323.15 K | 0.41

CC[n+]1ccn(C)c1.N#C[S-] + CO
Settings | electrical conductivity [S/m] | viscosity [mPa·s]
293.15 K, x1 = 0.0988 | 1.83 | 2.9
293.15 K, x1 = 0.1966 | 2.24 | 5
293.15 K, x1 = 0.3005 | 2.25 | 7.5
293.15 K, x1 = 0.3859 | 2.16 | 9.5
293.15 K, x1 = 0.5006 | 2 | 12.3
293.15 K, x1 = 0.5972 | 1.87 | 14.9
293.15 K, x1 = 0.6996 | 1.76 | 18
293.15 K, x1 = 0.804 | 1.68 | 21
293.15 K, x1 = 0.8997 | 1.64 | 24
293.15 K, x1 = 1 | 1.64 | 27
298.15 K, x1 = 0.0988 | 2.08 | 2.5
298.15 K, x1 = 0.1966 | 2.44 | 4.4
298.15 K, x1 = 0.3005 | 2.45 | 6.4
298.15 K, x1 = 0.3859 | 2.36 | 8.1
298.15 K, x1 = 0.5006 | 2.2 | 10.6
298.15 K, x1 = 0.6996 | 1.96 | 15.2
298.15 K, x1 = 0.804 | 1.88 | 18
298.15 K, x1 = 0.8997 | 1.84 | 20
298.15 K, x1 = 1 | 1.83 | 23
303.15 K, x1 = 0.0988 | 2.34 | 2.1
303.15 K, x1 = 0.1966 | 2.67 | 3.8
303.15 K, x1 = 0.3005 | 2.66 | 5.5
303.15 K, x1 = 0.5006 | 2.42 | 9.1
303.15 K, x1 = 0.5972 | 2.29 | 11
303.15 K, x1 = 0.6996 | 2.18 | 13.1
303.15 K, x1 = 0.804 | 2.1 | 15.3
303.15 K, x1 = 0.8997 | 2.05 | 18
308.15 K, x1 = 0.1966 | 2.89 | 3.3
308.15 K, x1 = 0.3005 | 2.88 | 4.8
308.15 K, x1 = 0.3859 | 2.81 | 6.1
308.15 K, x1 = 0.5972 | 2.52 | 9.6
308.15 K, x1 = 0.6996 | 2.41 | 11.4
308.15 K, x1 = 0.804 | 2.33 | 13.4
308.15 K, x1 = 0.8997 | 2.29 | 15.5
313.15 K, x1 = 0.0988 | 2.82 | 1.7
313.15 K, x1 = 0.1966 | 3.12 | 2.9
313.15 K, x1 = 0.3005 | 3.12 | 4.2
313.15 K, x1 = 0.3859 | 3.04 | 5.3
313.15 K, x1 = 0.5006 | 2.89 | 6.9
313.15 K, x1 = 0.5972 | 2.77 | 8.3
313.15 K, x1 = 0.6996 | 2.66 | 10
313.15 K, x1 = 0.804 | 2.58 | 11.7
313.15 K, x1 = 0.8997 | 2.54 | 13.5
313.15 K, x1 = 1 | 2.52 | 15.4
318.15 K, x1 = 0.0988 | 3.06 | 1.5
318.15 K, x1 = 0.1966 | 3.4 | 2.5
318.15 K, x1 = 0.3005 | 3.4 | 3.6
318.15 K, x1 = 0.3859 | 3.31 | 4.6
318.15 K, x1 = 0.5006 | 3.15 | 6
318.15 K, x1 = 0.5972 | 3.04 | 7.3
318.15 K, x1 = 0.6996 | 2.93 | 8.8
318.15 K, x1 = 0.804 | 2.85 | 10.3
318.15 K, x1 = 0.8997 | 2.81 | 11.9
318.15 K, x1 = 1 | 2.79 | 13.6
323.15 K, x1 = 0.0988 | 3.31 | 1.35
323.15 K, x1 = 0.3859 | 3.6 | 4
323.15 K, x1 = 0.5006 | 3.4 | 5.3
323.15 K, x1 = 0.5972 | 3.3 | 6.4
323.15 K, x1 = 0.6996 | 3.22 | 7.7
